# Measurements published in ChEMBL document CHEMBL1629630, “Inhibition of inositol phosphorylceramide synthase by the cyclic peptide aureobasidin A” (Antimicrob Agents Chemother, 2009).
# “And” between values parts separate entries of the source, which are not always exact repeats. Identical values can stand only once. The source made the active and inactive calls. The rule behind the calls is not given here. Numbered stars: 1 amine (or outer) side, 2 acyl side, 3 side chain; on linkers, the order of the positions; unused ones are H or OH. Square brackets hold non-standard residues; d marks the D form. Peptide text beside a SMILES is read from it. X1 = CC[C@@H](C)[C@@H](O[*:1])C(=O)[*:2]; NMeVal(β-OH) = CN[C@H](C(=O)O)C(C)(C)O; NMeF = CN[C@@H](Cc1ccccc1)C(=O)O; aIle = CC[C@@H](C)[C@H](N)C(=O)O; NMeV = CN[C@H](C(=O)O)C(C)C
# Key:
# [1] = molecular target: T1, Inositol phosphorylceramide synthase (Candida albicans (strain SC5314 / ATCC MYA-2876) (Yeast), UniProt O13332)
# T1 sequence (O13332 whole entry): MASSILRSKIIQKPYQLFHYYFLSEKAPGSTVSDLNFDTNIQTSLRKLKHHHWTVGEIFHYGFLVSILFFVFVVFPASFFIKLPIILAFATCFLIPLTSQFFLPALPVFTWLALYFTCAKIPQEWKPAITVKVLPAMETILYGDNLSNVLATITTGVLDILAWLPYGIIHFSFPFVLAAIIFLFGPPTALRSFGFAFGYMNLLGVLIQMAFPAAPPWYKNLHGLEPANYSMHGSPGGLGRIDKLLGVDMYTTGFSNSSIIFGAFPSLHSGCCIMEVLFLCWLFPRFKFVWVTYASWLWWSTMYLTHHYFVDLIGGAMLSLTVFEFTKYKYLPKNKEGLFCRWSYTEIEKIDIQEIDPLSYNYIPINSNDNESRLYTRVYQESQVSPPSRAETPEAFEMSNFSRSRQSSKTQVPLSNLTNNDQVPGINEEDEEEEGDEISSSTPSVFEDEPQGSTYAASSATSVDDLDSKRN
# Description: (§1) Inhibition of Candida albicans ATCC 38247 inositol phosphorylceramide synthase preincubated for 30 mins
# [2] = molecular target: T2, Inositol phosphorylceramide synthase catalytic subunit AUR1 (Saccharomyces cerevisiae S288c, UniProt P36107); assay: Inhibition of Saccharomyces cerevisiae inositol phosphorylceramide synthase
# T2 sequence (P36107 whole entry): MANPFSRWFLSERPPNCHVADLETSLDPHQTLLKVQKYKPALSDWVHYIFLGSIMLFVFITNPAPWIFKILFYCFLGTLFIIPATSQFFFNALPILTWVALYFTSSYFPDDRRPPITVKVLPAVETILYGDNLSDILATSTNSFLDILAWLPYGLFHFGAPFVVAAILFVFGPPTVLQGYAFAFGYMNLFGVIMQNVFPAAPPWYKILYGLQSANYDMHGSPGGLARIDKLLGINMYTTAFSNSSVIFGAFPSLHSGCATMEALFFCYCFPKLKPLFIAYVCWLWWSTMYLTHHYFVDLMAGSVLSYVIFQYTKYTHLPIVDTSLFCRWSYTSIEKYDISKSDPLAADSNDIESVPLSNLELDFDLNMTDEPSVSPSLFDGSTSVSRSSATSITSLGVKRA
# [3] = molecular target: T3, Inositol phosphorylceramide synthase (Candida albicans (strain SC5314 / ATCC MYA-2876) (Yeast)) (UniProt O13332); assay: Inhibition of Candida albicans ATCC 38247 inositol phosphorylceramide synthase; details: TDE = time-dependent effect
# T3 sequence (whole entry): T1 sequence (O13332 whole entry)
# [4] = molecular target: T2, Inositol phosphorylceramide synthase catalytic subunit AUR1; assay: Inhibition of Saccharomyces cerevisiae SJ21R inositol phosphorylceramide synthase preincubated for 30 mins
# [5] = molecular target: T4, Aureobasidin-resistance protein (Neosartorya fumigata (Aspergillus fumigatus), UniProt Q9Y745); assay: Inhibition of Aspergillus fumigatus inositol phosphorylceramide synthase
# T4 sequence (Q9Y745 whole entry): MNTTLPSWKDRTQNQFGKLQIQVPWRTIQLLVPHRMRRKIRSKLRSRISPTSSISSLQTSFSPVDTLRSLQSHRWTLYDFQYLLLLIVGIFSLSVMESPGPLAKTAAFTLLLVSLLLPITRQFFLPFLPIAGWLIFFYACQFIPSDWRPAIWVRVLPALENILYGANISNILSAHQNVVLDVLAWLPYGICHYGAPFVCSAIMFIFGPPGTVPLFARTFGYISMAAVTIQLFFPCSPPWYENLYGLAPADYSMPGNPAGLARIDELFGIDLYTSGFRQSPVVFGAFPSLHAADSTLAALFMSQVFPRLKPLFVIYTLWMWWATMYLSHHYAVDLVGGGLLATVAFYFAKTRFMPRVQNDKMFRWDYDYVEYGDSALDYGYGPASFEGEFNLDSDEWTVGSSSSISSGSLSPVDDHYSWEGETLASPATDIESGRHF
# [6] = molecular target: T1, Inositol phosphorylceramide synthase; assay: Inhibition of Candida albicans inositol phosphorylceramide synthase
# [7] = molecular target: Inositol phosphorylceramide synthase catalytic subunit AUR1 (Saccharomyces cerevisiae S288c, UniProt P36107); assay: Inhibition of aureobasidin A-resistant Saccharomyces cerevisiae inositol phosphorylceramide synthase preincubated for 30 mins
# [8] = molecular target: T3, Inositol phosphorylceramide synthase (Candida albicans (strain SC5314 / ATCC MYA-2876) (Yeast)); details: ATCC 38247
# Description: as §1
# [9] = molecular target: T3, Inositol phosphorylceramide synthase (Candida albicans (strain SC5314 / ATCC MYA-2876) (Yeast)); assay: Irreversible inhibition of Candida albicans ATCC 38247 inositol phosphorylceramide synthase
# [10] = molecular target: T1, Inositol phosphorylceramide synthase; assay: Reversible inhibition of Candida albicans inositol phosphorylceramide synthase
# [11] = molecular target: T2, Inositol phosphorylceramide synthase catalytic subunit AUR1; assay: Reversible inhibition of Saccharomyces cerevisiae inositol phosphorylceramide synthase
SMILES,Ki [1] [nM],inhibition [3],IC50 [6] [nM],IC50 [4] [nM],IC50 [7] [nM],further results
CCCCCCCCC(=O)N(C)C(C(=O)O[C@@H](C(=O)N(C)CCc1ccc(OC)c(OC)c1)c1ccccc1)C(C)(C)O (stereo partly drawn),11800,–,–,–,–,–
COc1ccc(CCN(C)C(=O)[C@H](OC(=O)C(N(C)C(=O)CCCCCc2ccccc2)C(C)(C)O)c2ccccc2)cc1OC (stereo partly drawn),10500,–,–,–,–,–
CCCC(CCC)C(=O)N(C)C(C(=O)O[C@@H](C(=O)N(C)CCc1ccc(OC)c(OC)c1)c1ccccc1)C(C)(C)O (stereo partly drawn),7900,–,–,–,–,–
CC[C@@H](C)[C@@H]1NC(=O)[C@@H]2CCCN2C(=O)[C@H](Cc2ccccc2)N(C)C(=O)[C@H](Cc2ccccc2)NC(=O)[C@H](C(C)C)N(C)C(=O)[C@@H]([C@H](C)CC)OC(=O)[C@H](C(C)(C)O)N(C)C(=O)[C@H](CC(C)C)NC(=O)[C@H](C(C)C)N(C)C1=O [AUREOBASIDIN A] (cyclo(F[NMeF]P[aIle][NMeV]L[NMeVal(β-OH)][X1][NMeV])),0.18,tde,0.2,–,–,IC50 [2]: 0.2 nM; Ki [4]: 0.23 nM; IC50 [5]: 0.2 nM; Ki [6]: 0.55 nM; Ki [7]: 1400 nM; Kinact [8]: 2.5 /us and 1.8 /us; inhibition [9]: Active
CCCCCCCCCC[C@H](C)[C@@H](O)[C@@H](C)/C=C(C)/C=C(\C)C(=O)[C@H](C)/C=C(\C)C(=O)O[C@H](CO)[C@@H](O)[C@H](O)C(=O)O [KHAFREFUNGIN],0.43,tde,0.6,43,11300,–
C=C1/C=C(\C)[C@H](CC)CC(=O)[C@H](C)C(=O)[C@@](O)(CO)C/C(OC)=C/[C@@H](C)C1 [RUSTMICIN],16,–,–,13,27200,IC50 [10]: 3.8 nM; IC50 [11]: 3.8 nM
